The test system of data set [1] is MCF7. Nature of the data set: Cytotoxicity against human MCF7 cells at 10 uM. Format: functional, cell-based.
Data set [2] addresses T1, Cytochrome P450 3A4 (Homo sapiens, UniProt P08684). Nature of the data set: Inhibition of human recombinant CYP3A4 assessed as biotransformation of […] measured every minute for 15 mins by fluorescence intensity assay. It counts as ADME.
Data set [3] addresses T1, Cytochrome P450 3A4. Nature of the data set: Inhibition of human recombinant CYP3A4 assessed as biotransformation of […] at 10 uM measured every minute for 15 mins by fluorescence intensity assay. Format: ADME.

Data on 17 compounds can be found in ChEMBL document CHEMBL1156289, “Potent and selective inhibition of human cytochrome P450 3A4 by seco-pancratistatin structural analogs” (Bioorg Med Chem Lett, 2010).

The structures appear in SMILES notation. Active and inactive are the calls of the source. The calls are words filed in the database; no cut-off is given here.

T1 sequence (P08684 whole entry): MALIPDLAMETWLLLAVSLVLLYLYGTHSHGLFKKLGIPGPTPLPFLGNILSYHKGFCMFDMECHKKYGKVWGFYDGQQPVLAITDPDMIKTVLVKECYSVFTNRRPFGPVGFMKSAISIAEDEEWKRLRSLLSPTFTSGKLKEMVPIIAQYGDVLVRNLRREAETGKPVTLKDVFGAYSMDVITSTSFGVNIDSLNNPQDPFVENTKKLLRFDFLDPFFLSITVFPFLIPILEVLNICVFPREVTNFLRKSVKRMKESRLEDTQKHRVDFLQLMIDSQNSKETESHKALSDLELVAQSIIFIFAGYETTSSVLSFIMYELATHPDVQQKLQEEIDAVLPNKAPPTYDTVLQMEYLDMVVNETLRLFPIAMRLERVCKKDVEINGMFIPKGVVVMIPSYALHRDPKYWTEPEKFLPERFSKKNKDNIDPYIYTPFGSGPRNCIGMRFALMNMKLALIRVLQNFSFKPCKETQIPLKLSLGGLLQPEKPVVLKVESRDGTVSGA

For the compound `COCO[C@@H]([C@@H]1OC(C)(C)O[C@H]1CO[Si](C)(C)C(C)(C)C)[C@@H](CNC(=O)OC(C)(C)C)c1ccc2c(c1)OCO2`, the outcome in data set [1] was inactive.

As usually defined, the Ki is a measure of affinity in units of concentration, obtained from inhibition or displacement. Regarding `COCO[C@H]([C@@H]1OC(C)(C)O[C@H]1CO)[C@H](CNC(=O)c1ccccc1)c1ccc2c(c1)OCO2`, in data set [2], the inhibition constant Ki stood at 1780 nM. Moreover, the result in data set [1] was inactive.

As to `CC1(C)O[C@@H]([C@H](O)[C@@H](CNC(=O)c2ccccc2)c2ccc3c(c2)OCO3)[C@H](CO[Si](C)(C)C(C)(C)C)O1`, the result in data set [1] was inactive.

On to `COCO[C@@H]([C@@H]1OC(C)(C)O[C@H]1CO)[C@@H](CNC(=O)c1ccccc1)c1ccc2c(c1)OCO2`, for which the result in data set [1] was inactive.

On to `COCO[C@H]([C@@H]1OC(C)(C)O[C@H]1CO[Si](C)(C)C(C)(C)C)[C@H](CO)c1ccc2c(c1)OCO2`, for which the Ki result in data set [3] is “Not Active”.

`COCO[C@H]([C@@H]1OC(C)(C)O[C@H]1COS(=O)(=O)c1ccc(C)cc1)[C@H](CNC(=O)c1ccccc1)c1ccc2c(c1)OCO2`: the Ki in data set [2] is 70 nM. Also, in data set [1], the result was inactive.

In the case of `COCO[C@@H]([C@@H]1OC(C)(C)O[C@H]1COS(=O)(=O)c1ccc(C)cc1)[C@@H](CNC(=O)c1ccccc1)c1ccc2c(c1)OCO2`, in data set [1], the outcome was inactive.

As for `O=C(NC[C@@H](c1ccc2c(c1)OCO2)[C@@H](O)[C@H](O)[C@@H](O)CO)c1ccccc1`, the outcome in data set [1] was inactive.

Consider `COCO[C@H]([C@@H]1OC(C)(C)O[C@H]1CO[Si](C)(C)C(C)(C)C)[C@H](CNC(=O)OC(C)(C)C)c1ccc2c(c1)OCO2`, for which the inhibition constant Ki in data set [2] came to 240 nM. Moreover, the result in data set [1] was inactive.

Consider `O=C(NC[C@H](c1ccc2c(c1)OCO2)[C@H](O)[C@H](O)[C@@H](O)CO)c1ccccc1`, for which the outcome in data set [1] was inactive.

For the compound `COCO[C@H]([C@@H]1OC(C)(C)O[C@H]1CO[Si](C)(C)C(C)(C)C)[C@H](CNC(=O)c1ccccc1)c1ccc2c(c1)OCO2`, the inhibitory constant (Ki) in data set [2] was found to be 30 nM. Besides, in data set [1], the outcome was inactive.

Regarding `COCO[C@@H]([C@@H]1OC(C)(C)O[C@H]1CO[Si](C)(C)C(C)(C)C)[C@@H](CNC(=O)c1ccccc1)c1ccc2c(c1)OCO2`, in data set [1], the result was inactive.

On to `CC(C)OC(=O)[C@H](c1ccc2c(c1)OCO2)[C@H](O)[C@@H]1OC(C)(C)O[C@H]1CO[Si](C)(C)C(C)(C)C`, for which, in data set [3], the Ki entry was “Not Active”.

Regarding `COCO[C@H]([C@@H]1OC(C)(C)O[C@H]1CO[Si](C)(C)C(C)(C)C)[C@H](CN=[N+]=[N-])c1ccc2c(c1)OCO2`, in data set [3], the Ki result is on record as “Not Active”. The outcome in data set [1] was inactive.

For `CC1(C)O[C@@H]([C@H](O)[C@@H](CNC(=O)c2ccccc2)c2ccc3c(c2)OCO3)[C@H](CO)O1`, the result in data set [1] was inactive.

As to `COCO[C@@H]([C@@H]1OC(C)(C)O[C@H]1COC(C)=O)[C@@H](CNC(=O)c1ccccc1)c1ccc2c(c1)OCO2`, in data set [1], the outcome was inactive.

As for `COCO[C@@H]([C@@H]1OC(C)(C)O[C@H]1CO[Si](c1ccccc1)(c1ccccc1)C(C)(C)C)[C@@H](CNC(=O)c1ccccc1)c1ccc2c(c1)OCO2`, in data set [1], the outcome was inactive.
